Results from ChEMBL document CHEMBL2169792, “Synthesis of new 4-thiazolidinone-, pyrazoline-, and isatin-based conjugates with promising antitumor activity” (J Med Chem, 2012).
Active and inactive are the calls of the source. The rule behind the calls is not given here.

Experiments:
[1] = Cytotoxicity against human non-small cell lung cancer cells after 48 hrs by SRB assay; assay type: functional; settings: Cancer cell lines; for CC50: read-out: LC50 (the source's name)
[2] = Cytotoxicity against human prostate cancer cells after 48 hrs by SRB assay; assay type: functional; settings: Cancer cell lines
[3] = Cytotoxicity against human breast cancer cells after 48 hrs by SRB assay; assay type: functional; settings: Cancer cell lines
[4] = Cytotoxicity against human renal cancer cells after 48 hrs by SRB assay; assay type: functional; settings: Cancer cell lines
[5] = Cytotoxicity against human melanoma cells after 48 hrs by SRB assay; assay type: functional; settings: Melanoma cell; for CC50: read-out: LC50 (the source's name)
[6] = Cytotoxicity against human ovarian cancer cells after 48 hrs by SRB assay; assay type: functional; settings: Cancer cell lines
[7] = Cytotoxicity against human CNS cancer cells after 48 hrs by SRB assay; assay type: functional; settings: Cancer cell lines
[8] = Cytotoxicity against human colon cancer cells after 48 hrs by SRB assay; assay type: functional; settings: Cancer cell lines
[9] = Cytotoxicity against human leukemia cells after 48 hrs by SRB assay; assay type: functional; settings: Leukemia cell; for CC50: read-out: LC50 (the source's name)
HL-60(TB) = assay: Cytotoxicity against human HL-60(TB) cells assessed as cell growth at 10 uM after 48 hrs by SRB assay; assay type: functional; settings: HL-60, 48 h, read-out: Activity
[10] = Toxicity in mouse; assay type: organism-based; settings: in vivo
SF-539 = assay: Cytotoxicity against human SF539 cells assessed as cell growth at 10 uM after 48 hrs by SRB assay; assay type: functional; settings: SF-539, 48 h, read-out: Activity
Mus musculus = assay: Antitumor activity in ip dosed athymic nude mouse hollow fiber model assessed as reduction of viable cell mass; assay type: functional, organism-based
HCT-116 = assay: Cytotoxicity against human HCT116 cells assessed as cell growth at 10 uM after 48 hrs by SRB assay; assay type: functional; settings: HCT-116, 48 h, read-out: Activity
786-0 = assay: Cytotoxicity against human 786-0 cells assessed as cell growth at 10 uM after 48 hrs by SRB assay; assay type: functional; settings: 786-0, 48 h, read-out: Activity
TK-10 = assay: Cytotoxicity against human TK10 cells assessed as cell growth at 10 uM after 48 hrs by SRB assay; assay type: functional; settings: TK-10, 48 h, read-out: Activity
MOLT-4 = assay: Cytotoxicity against human MOLT4 cells assessed as cell growth at 10 uM after 48 hrs by SRB assay; assay type: functional; settings: MOLT-4, 48 h, read-out: Activity
OVCAR-3 = assay: Cytotoxicity against human OVCAR3 cells assessed as cell growth at 10 uM after 48 hrs by SRB assay; assay type: functional; settings: OVCAR-3, 48 h, read-out: Activity
SNB-75 = assay: Cytotoxicity against human SNB75 cells assessed as cell growth at 10 uM after 48 hrs by SRB assay; assay type: functional; settings: SNB-75, 48 h, read-out: Activity

| SMILES | GI50 [1] [µM] | TGI [1] [µM] | CC50 [1] [µM] | GI50 [2] [µM] | LC50 [2] [µM] | TGI [2] [µM] | GI50 [3] [µM] | LC50 (concentration causing 50% net cell kill) [3] [µM] | TGI [3] [µM] | GI50 [4] [µM] | LC50 [4] [µM] | TGI [4] [µM] | GI50 [5] [µM] | TGI [5] [µM] | CC50 [5] [µM] | GI50 [6] [µM] | LC50 (concentration causing 50% net cell kill) [6] [µM] | TGI [6] [µM] | GI50 [7] [µM] | LC50 (concentration giving 50% net cell kill) [7] [µM] | further results |
| --- | --- | --- | --- | --- | --- | --- | --- | --- | --- | --- | --- | --- | --- | --- | --- | --- | --- | --- | --- | --- | --- |
| CN(C)c1ccc(-c2cc(-c3ccccc3)nn2C2C(=O)Nc3ccccc32)cc1 (stereo not given) | 16.2 | 56 | 90.9 | 16.1 | 100 | 74 | 20.8 | 90.1 | 73.4 | 17.4 | 86.2 | 57.3 | 19.6 | 54.5 | 91.2 | 18.9 | 93.3 | 67.2 | 21.2 | 95.1 | TGI [7]: 68.7 µM; GI50 [8]: 16.1 µM; LC50 (concentration lethal to 50% of cells) [8]: 79 µM; TGI [8]: 39.7 µM; GI50 [9]: 16.3 µM; TGI [9]: 74.6 µM; CC50 [9]: 100 µM; growth at 10 µM (HL-60(TB)): 70.9% |
| COc1ccc(C2CC(c3ccccc3)=NN2C2=NC(=O)/C(=C3\C(=O)Nc4ccc(Br)cc43)S2)cc1 (stereo not given) | 0.2 | 0.51 | 3.27 | 0.24 | 39.5 | 0.66 | 0.2 | 26.5 | 0.48 | 0.18 | 1.27 | 0.36 | 0.21 | 0.55 | 5.01 | 0.23 | 23.4 | 3.63 | 0.18 | 6.48 | MTD [10]: > 400 mg/kg; TGI [7]: 0.39 µM; GI50 [8]: 0.19 µM; LC50 (concentration lethal to 50% of cells) [8]: 1.07 µM; TGI [8]: 0.39 µM; GI50 [9]: 0.25 µM; TGI [9]: 4.23 µM; CC50 [9]: 51 µM; growth at 10 µM (SF-539): -55.1%; Activity (Mus musculus): inactive |
| O=C1N=C(N2N=C(c3ccccc3)CC2c2ccccc2O)S/C1=C1/C(=O)Nc2ccccc21 (stereo not given) | 2.03 | 4.73 | 57.2 | 2.05 | 54.7 | 4.35 | 2.09 | 64.6 | 4.77 | 2.07 | 55.8 | 17.8 | 2.04 | 4.4 | 60.8 | 2.41 | 81.5 | 36.6 | 2.13 | 68.1 | TGI [7]: 5.37 µM; GI50 [8]: 1.99 µM; LC50 (concentration lethal to 50% of cells) [8]: 33.4 µM; TGI [8]: 4.22 µM; GI50 [9]: 3.19 µM; TGI [9]: 48.8 µM; CC50 [9]: 100 µM; growth at 10 µM (HCT-116): -37.4% |
| O=C1Nc2ccc(Br)cc2C1n1nc(-c2ccccc2)cc1-c1ccc(Cl)cc1 (stereo not given) |  |  |  |  |  |  |  |  |  |  |  |  |  |  |  |  |  |  |  |  | growth at 10 µM (786-0): 90.1% |
| COc1ccc(C2CC(c3ccccc3)=NN2C2=NC(=O)/C(=C3\C(=O)N(CC(=O)O)c4ccccc43)S2)cc1 (stereo not given) |  |  |  |  |  |  |  |  |  |  |  |  |  |  |  |  |  |  |  |  | growth at 10 µM (TK-10): 97.3% |
| COc1ccc(-c2cc(-c3ccc4ccccc4c3)nn2C2C(=O)Nc3ccc(Cl)cc32)cc1 (stereo not given) |  |  |  |  |  |  |  |  |  |  |  |  |  |  |  |  |  |  |  |  | growth at 10 µM (MOLT-4): 98.2% |
| COc1ccc(C2=NN(C3=NC(=O)/C(=C4\C(=O)Nc5ccccc54)S3)C(c3ccc(Cl)cc3)C2)cc1 (stereo not given) | 92.4 | 100 | 100 | 100 | 100 | 100 | 100 | 100 | 100 | 100 | 100 | 100 | 100 | 100 | 100 | 100 | 100 | 100 | 77.5 | 100 | MTD [10]: > 400 mg/kg; TGI [7]: 100 µM; GI50 [8]: 100 µM; LC50 (concentration lethal to 50% of cells) [8]: 100 µM; TGI [8]: 100 µM; GI50 [9]: 86.5 µM; TGI [9]: 90.9 µM; CC50 [9]: 100 µM; growth at 10 µM (OVCAR-3): 77.5%; Activity (Mus musculus): inactive |
| O=C(O)CN1C(=O)C(n2nc(-c3ccccc3)cc2-c2ccccc2O)c2ccccc21 (stereo not given) |  |  |  |  |  |  |  |  |  |  |  |  |  |  |  |  |  |  |  |  | growth at 10 µM (SNB-75): 108% |
